What all share (test): NCI anticancer screen, dose series, 48 h
Test [1] relates to A549.
Test [2] concerns HL-60.
Test [3] deals with RPMI-8226.
Test [4] relates to SF-268.
Test [5] has as its system NCI-H522.
Test [6] relates to MDA-MB-231.
The subject of test [7] is HCT-116.
For test [8], the system named is M14.
Test [9] concerns BT-549.
Test [10] relates to SW-620.
Test [11] deals with HOP-92.
The subject of test [12] is SK-OV-3.
Test [13] deals with LXFL 529.
Test [14] deals with SF-539.
Test [15] relates to IGROV-1.
The subject of test [16] is EKVX.
Test [17] concerns UACC-62.
Test [18] deals with OVCAR-8.
Test [19] relates to OVCAR-4.
The test system of test [20] is MCF7.

Each structure is given as a SMILES string.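 Each compound was tested at five concentrations against cells in 96-well plates for 48 hours. Here, GI50 denotes the concentration required for 50% inhibition of growth.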 Activity calls are given as the source filed them. Cut-off read from the data, not from the text of the source: active = GI50 up to about 1.1 µM and inactive = higher.

Five compounds from ChEMBL document CHEMBL1201862, “PubChem BioAssay data set” (2004) can be followed below.

As for `CSc1ccc(/C=C2\CNC/C(=C\c3ccc(SC)cc3)C2=O)cc1`, the GI50 in [1] is > 237000 nM (inactive); in [2], > 74300 nM (inactive); in test [3], > 79800 nM (inactive); in test [4], 13400 nM (inactive); in [5] it was 56400 nM (inactive); in test [6], 86900 nM (inactive). Besides, the GI50 was 144000 nM (inactive) in test [7]; > 206000 nM (inactive) in test [8]; > 371000 nM (inactive) in test [9]; > 371000 nM (inactive) in test [10]; 65500 nM (inactive) in test [11]; 96800 nM (inactive) in [12]. The GI50 in test [13] is 21200 nM (inactive); in test [14], 18400 nM (inactive); in test [15], > 81700 nM (inactive); in [16], > 170000 nM (inactive); in test [17], > 87500 nM (inactive); in test [18], 52400 nM (inactive).
Take `O=C1C=CC(=O)c2c1ccc1c3ccccc3n(-c3ccccc3)c21`: the GI50 in [1] is 20500 nM (inactive); in [2] it was 501 nM (active); in test [3], 1260 nM (inactive); in test [4], 17400 nM (inactive); in [5], 1640 nM (inactive); in test [6], 4450 nM (inactive). Also, the GI50 is 2370 nM (inactive) in test [7]; 13900 nM (inactive) in test [19]; 7780 nM (inactive) in [8]; 2110 nM (inactive) in test [20]; 13500 nM (inactive) in test [9]; 2290 nM (inactive) in [10]. Besides, the GI50 in [11] is 2610 nM (inactive); in test [12] it was 16800 nM (inactive); in test [13] it was 3530 nM (inactive); in [14], 15700 nM (inactive); in test [15], 18300 nM (inactive); in test [16], 8770 nM (inactive). Moreover, the GI50 was 13000 nM (inactive) in test [17] and 4560 nM (inactive) in [18].
With `CC(=O)O[C@H]1C(=O)[C@@]2(C)C(C(OC(=O)c3ccccc3)[C@]3(O)C[C@H](OC(=O)C(OC(=O)CCCC(=O)NCCCN(C)C)C(NC(=O)c4ccccc4)c4ccccc4)C(C)=C1C3(C)C)C1(OC(C)=O)COC1C[C@@H]2O` (stereo not given in full), the GI50 in test [1] was < 10 nM (active); in test [2], < 10 nM (active); in [3] it was < 10 nM (active); in [4], 10.9 nM (active); in test [5], < 10 nM (active); in test [6], < 12.5 nM (active). Further, the GI50 in [7] is < 10 nM (active); in [19], 8710 nM (inactive); in [8] it was < 10 nM (active); in [20], < 10 nM (active); in [9] it was 10.1 nM (active); in test [10], < 10 nM (active). Moreover, the GI50 in test [11] was 2190 nM (inactive); in test [12], 14.1 nM (active); in test [13], < 10 nM (active); in test [14], < 10 nM (active); in [15], 13.8 nM (active); in test [16], 262 nM (active). In addition, the GI50 in [17] and in test [18] was < 10 nM (active) in each case.
Turning to `COc1ccc(C(=O)c2cc(OC)c(OC)c(OC)c2)cc1`, the GI50 in test [1] is 106 nM (active); in test [2] it was 31 nM (active); in [3], 169 nM (active); in test [4], 838 nM (active); in test [5], 71.5 nM (active); in [6], 88.1 nM (active). For the same compound, the GI50 is 70.3 nM (active) in test [7]; 28600 nM (inactive) in [19]; 75.3 nM (active) in test [8]; 99.1 nM (active) in [20]; 923 nM (active) in [9]; 55.6 nM (active) in test [10]. Further, the GI50 is 2410 nM (inactive) in test [11]; 1140 nM (inactive) in [12]; 221 nM (active) in test [13]; 152 nM (active) in test [14]; 219 nM (active) in test [15]; 484 nM (active) in test [16]. Further, the GI50 was 50.1 nM (active) in test [17] and 382 nM (active) in test [18].
On to `CC(C)(C)c1cc(C=C(C#N)C#N)cc(C(C)(C)C)c1O` [TYRPHOSTIN A9], for which the GI50 was 316 nM (active) in test [1]; 329 nM (active) in [2]; 344 nM (active) in [4]; 126 nM (active) in test [5]; 1560 nM (inactive) in [6]; 277 nM (active) in test [7]. Also, the GI50 in test [19] was 724 nM (active); in test [8], 944 nM (active); in [20] it was 391 nM (active); in [9], 316 nM (active); in test [10] it was 546 nM (active); in test [11] it was 52.7 nM (active). For the same compound, the GI50 in test [13] was 518 nM (active); in test [14], 259 nM (active); in test [15], 682 nM (active); in [17] it was 328 nM (active); in test [18], 303 nM (active).
